{"source": "patent US20240067654A1", "about": "(Kinoxis Therapeutics Pyt Ltd, priority 2020, published 2024)", "key": {"OTR [1]": {"target": "T1, OTR (Homo sapiens, UniProt P30559)", "T1 sequence (P30559 1-389)": "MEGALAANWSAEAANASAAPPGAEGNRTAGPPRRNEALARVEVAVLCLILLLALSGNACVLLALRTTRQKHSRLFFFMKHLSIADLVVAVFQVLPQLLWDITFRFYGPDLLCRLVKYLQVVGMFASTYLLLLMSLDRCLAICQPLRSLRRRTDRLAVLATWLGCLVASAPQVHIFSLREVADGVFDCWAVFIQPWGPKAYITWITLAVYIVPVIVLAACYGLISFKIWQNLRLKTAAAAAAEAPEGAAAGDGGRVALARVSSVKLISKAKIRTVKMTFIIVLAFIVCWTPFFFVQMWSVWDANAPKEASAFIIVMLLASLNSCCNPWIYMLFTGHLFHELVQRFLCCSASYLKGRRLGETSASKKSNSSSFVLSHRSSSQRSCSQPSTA", "experiment": "Modulation of oxytocin-evoked intracellular IP1 and Ca2+ increase: OT dose-response in presence and absence of 10 μM compound", "details": "for change in OT potency seen in OT dose-response curves (figure legend): 10 μM of compound; for Relative Potency: OT potency with 10 μM compound relative to OT only", "method": "These assays were performed using commercial kits (IP1 HTRF from Cisbio and Fluo-4AM from Invitrogen), according to the manufacturer's protocol."}, "OTR [2]": {"target": "T1, OTR", "experiment": "Tritiated OT (3H-OT) displacement", "format": "binding", "parameters": "expressed in transfected cells; host or cells: HEK cells, Flp-In TREX system (Invitrogen)", "details": "Kd concentration of 3H-OT; compound at a concentration up to 10 μM"}, "OTR [3]": {"target": "T1, OTR", "experiment": "Calcium (Ca2+) influx induced by OT in the presence of various concentrations of compound 3 (HEK assay)", "format": "cell-based", "parameters": "expressed in transfected cells; host or cells: HEK cells, Flp-In TREX system (Invitrogen)"}, "rat V1aR": {"target": "rat V1aR (Rattus norvegicus, UniProt P30560)", "sequence (P30560 whole entry)": "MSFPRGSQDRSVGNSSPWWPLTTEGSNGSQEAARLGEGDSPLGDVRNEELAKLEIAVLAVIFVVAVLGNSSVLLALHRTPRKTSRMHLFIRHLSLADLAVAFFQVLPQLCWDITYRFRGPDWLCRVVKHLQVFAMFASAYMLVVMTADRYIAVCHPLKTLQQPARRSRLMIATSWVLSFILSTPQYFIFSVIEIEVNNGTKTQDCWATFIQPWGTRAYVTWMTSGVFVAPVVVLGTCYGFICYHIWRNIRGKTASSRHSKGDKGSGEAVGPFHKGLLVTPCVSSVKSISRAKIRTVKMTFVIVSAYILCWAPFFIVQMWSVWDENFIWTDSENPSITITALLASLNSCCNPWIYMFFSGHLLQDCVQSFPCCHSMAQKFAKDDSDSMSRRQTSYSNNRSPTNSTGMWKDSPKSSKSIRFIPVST", "details": "cited from earlier work"}, "human V1aR": {"target": "human V1aR (Homo sapiens, UniProt P37288)", "sequence (P37288 whole entry)": "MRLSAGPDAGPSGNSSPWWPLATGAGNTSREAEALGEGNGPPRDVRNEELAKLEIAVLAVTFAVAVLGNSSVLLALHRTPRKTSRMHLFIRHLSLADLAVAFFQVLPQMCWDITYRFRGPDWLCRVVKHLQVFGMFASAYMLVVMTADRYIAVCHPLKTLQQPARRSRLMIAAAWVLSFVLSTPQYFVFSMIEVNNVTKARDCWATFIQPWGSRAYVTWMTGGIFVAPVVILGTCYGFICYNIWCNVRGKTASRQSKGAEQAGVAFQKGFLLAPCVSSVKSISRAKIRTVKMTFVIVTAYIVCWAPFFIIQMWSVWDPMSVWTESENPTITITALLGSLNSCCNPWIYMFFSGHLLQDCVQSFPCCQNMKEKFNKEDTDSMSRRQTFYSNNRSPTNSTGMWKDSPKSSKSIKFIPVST", "details": "cited from earlier work"}, "[4]": {"details": "rat, in vivo; cited from earlier work"}, "[5]": {"details": "in vivo; cited from earlier work"}}}
{"compound": "Cn1ncc2c1c1ccccc1n2C(=O)c1ccc(F)cc1", "note": "[Compound 10]", "values": [{"measurement": "change in OT potency seen in OT dose-response curves (figure legend)", "setting": "OTR [1]", "value": "improvement in OT potency"}, {"measurement": "Relative Potency", "setting": "OTR [1]; Table 7 group", "value": 2.5}]}
{"compound": "Cn1ncc2c1c1ccccc1n2C(=O)c1ccc(Cl)cc1", "note": "[Compound 5]", "values": [{"measurement": "melting point", "value": "145 to 147", "unit": "°C"}, {"measurement": "change in OT potency seen in OT dose-response curves (figure legend)", "setting": "OTR [1]", "value": "improvement in OT potency"}, {"measurement": "Relative Potency", "setting": "OTR [1]; Table 3 group", "value": 3.1}]}
{"compound": "Cn1ncc2c1c1ccccc1n2S(=O)(=O)C1CCCCC1", "note": "[Compound 43]", "values": [{"measurement": "change in OT potency seen in OT dose-response curves (figure legend)", "setting": "OTR [1]", "value": "improvement in OT potency"}, {"measurement": "Relative Potency", "setting": "OTR [1]; Table 6 group", "value": 2.6}]}
{"compound": "Cn1ncc2c1c1ccccc1n2C(=O)c1ccccc1", "note": "[Compound 1]", "values": [{"measurement": "melting point", "value": "152.6 to 153.2", "unit": "°C"}, {"measurement": "displacement of the binding of 3H-OT", "setting": "OTR [2]", "value": "None of compounds 1, 2 or 3 displaced ^3H-OT"}, {"measurement": "change in OT potency seen in OT dose-response curves (figure legend)", "setting": "OTR [1]", "value": "improvement in OT potency"}, {"measurement": "Relative Potency", "setting": "OTR [1]; Table 2 group", "value": 10.4}]}
{"compound": "COc1ccc(C(=O)n2c3ccccc3c3c2cnn3C)cc1", "note": "[Compound 7]", "values": [{"measurement": "melting point", "value": "136 to 138", "unit": "°C"}, {"measurement": "change in OT potency seen in OT dose-response curves (figure legend)", "setting": "OTR [1]", "value": "improvement in OT potency"}, {"measurement": "Relative Potency", "setting": "OTR [1]; Table 7 group", "value": 2.1}]}
{"compound": "Cn1ncc2c1c1ccccc1n2C(=O)C1CCCCC1", "note": "[Compound 3]", "values": [{"measurement": "melting point", "value": "140.3 to 141.2", "unit": "°C"}, {"measurement": "Relative Potency", "setting": "OTR [3]; OT + 0.01 μM compound 3, relative to 0 μM", "value": 0.64}, {"measurement": "Relative Potency", "setting": "OTR [3]; OT + 0.03 μM compound 3, relative to 0 μM", "value": 0.47}, {"measurement": "Relative Potency", "setting": "OTR [3]; OT + 0.3 μM compound 3, relative to 0 μM", "value": 2.83}, {"measurement": "Relative Potency", "setting": "OTR [3]; OT + 1 μM compound 3, relative to 0 μM", "value": 3.90}, {"measurement": "Relative Potency", "setting": "OTR [3]; OT + 10 μM compound 3, relative to 0 μM", "value": 19.0}, {"measurement": "displacement of the binding of 3H-OT", "setting": "OTR [2]", "value": "None of compounds 1, 2 or 3 displaced ^3H-OT"}, {"measurement": "change in OT potency seen in OT dose-response curves (figure legend)", "setting": "OTR [1]", "value": "improvement in OT potency"}, {"measurement": "Relative Potency", "setting": "OTR [1]; Table 2 group", "value": 5.5}]}
{"compound": "CC[C@H](C)[C@@H]1NC(=O)[C@H](Cc2ccc(O)cc2)NC(=O)[C@@H](N)CSSC[C@@H](C(=O)N2CCC[C@H]2C(=O)N[C@@H](CC(C)C)C(=O)NCC(N)=O)NC(=O)[C@H](CC(N)=O)NC(=O)[C@H](CCC(N)=O)NC1=O", "note": "[OT, Oxytocin]", "values": [{"measurement": "affinity of OT at V1aR", "setting": "rat V1aR", "value": 78, "unit": "nM"}, {"measurement": "affinity of OT at V1aR", "setting": "human V1aR", "value": 120, "unit": "nM"}, {"measurement": "half-life in blood", "setting": "[4]", "value": "3 to 8", "unit": "min"}, {"measurement": "fraction of intranasal OT that enters the brain", "setting": "[5]", "value": "0.002-0.005%"}]}
{"compound": "Cn1ncc2c1c1ccccc1n2C(=O)C1CCOCC1", "note": "[Compound 16]", "values": [{"measurement": "change in OT potency seen in OT dose-response curves (figure legend)", "setting": "OTR [1]", "value": "improvement in OT potency"}, {"measurement": "Relative Potency", "setting": "OTR [1]; Table 7 group", "value": 2.6}]}
{"compound": "Cn1ncc2c3ccccc3n(C(=O)c3ccccc3)c21", "note": "[Compound 31]", "values": [{"measurement": "Relative Potency", "setting": "OTR [1]; Table 5 group", "value": 5.0}]}
{"compound": "Cn1ncc2c1c1ccccc1n2C(=O)c1cccc(F)c1", "note": "[Compound 2]", "values": [{"measurement": "melting point", "value": "91.1 to 92.8", "unit": "°C"}, {"measurement": "displacement of the binding of 3H-OT", "setting": "OTR [2]", "value": "None of compounds 1, 2 or 3 displaced ^3H-OT"}, {"measurement": "change in OT potency seen in OT dose-response curves (figure legend)", "setting": "OTR [1]", "value": "improvement in OT potency"}, {"measurement": "Relative Potency", "setting": "OTR [1]; Table 2 group", "value": 8.4}]}
{"compound": "Cn1ncc2c3ccccc3n(C(=O)c3cccc(F)c3)c21", "note": "[Compound 32]", "values": [{"measurement": "Relative Potency", "setting": "OTR [1]; Table 5 group", "value": 3.4}]}
{"compound": "CCCCC(=O)n1c2ccccc2c2c1cnn2C", "note": "[Compound 14]", "values": [{"measurement": "change in OT potency seen in OT dose-response curves (figure legend)", "setting": "OTR [1]", "value": "improvement in OT potency"}, {"measurement": "Relative Potency", "setting": "OTR [1]; Table 7 group", "value": 2.6}]}
{"compound": "Cn1ncc2c1c1ccccc1n2C(=O)c1cccc2ncccc12", "note": "[Compound 29]", "values": [{"measurement": "change in OT potency seen in OT dose-response curves (figure legend)", "setting": "OTR [1]", "value": "improvement in OT potency"}, {"measurement": "Relative Potency", "setting": "OTR [1]; Table 8 group, n = 2", "value": 2.8}]}
{"compound": "Cn1ccc2c1c1ccccc1n2C(=O)C1CCCCC1", "note": "[Compound 35]", "values": [{"measurement": "change in OT potency seen in OT dose-response curves (figure legend)", "setting": "OTR [1]", "value": "improvement in OT potency"}, {"measurement": "Relative Potency", "setting": "OTR [1]; Table 9 group", "value": 3.7}]}
{"compound": "Cc1ccc(C(=O)n2c3ccccc3c3c2cnn3C)cc1", "note": "[Compound 4]", "values": [{"measurement": "melting point", "value": "167 to 169", "unit": "°C"}, {"measurement": "change in OT potency seen in OT dose-response curves (figure legend)", "setting": "OTR [1]", "value": "improvement in OT potency"}, {"measurement": "Relative Potency", "setting": "OTR [1]; Table 3 group", "value": 2.9}]}
{"compound": "Cn1ncc2c1c1ccccc1n2C(=O)C1CCCC1", "note": "[Compound 12]", "values": [{"measurement": "change in OT potency seen in OT dose-response curves (figure legend)", "setting": "OTR [1]", "value": "improvement in OT potency"}, {"measurement": "Relative Potency", "setting": "OTR [1]; Table 4 group", "value": 2.3}]}
{"compound": "Cn1ncc2c1c1ccccc1n2C(=O)c1ccc(Cl)c(Cl)c1", "note": "[Compound 6]", "values": [{"measurement": "melting point", "value": "142 to 143", "unit": "°C"}, {"measurement": "change in OT potency seen in OT dose-response curves (figure legend)", "setting": "OTR [1]", "value": "improvement in OT potency"}, {"measurement": "Relative Potency", "setting": "OTR [1]; Table 3 group", "value": 2.9}]}
{"compound": "Cn1ncc2c1c1ccccc1n2C(=O)C12CC3CC(CC(C3)C1)C2", "note": "[Compound 23]", "values": [{"measurement": "change in OT potency seen in OT dose-response curves (figure legend)", "setting": "OTR [1]", "value": "improvement in OT potency"}, {"measurement": "Relative Potency", "setting": "OTR [1]; Table 4 group", "value": 3.4}]}
{"compound": "Cn1ncc2c3ccccc3n(C(=O)C3CCCCC3)c21", "note": "[Compound 33]", "values": [{"measurement": "Relative Potency", "setting": "OTR [1]; Table 5 group", "value": 3.7}]}
{"compound": "Cn1ncc2c1c1ccccc1n2C(=O)N1CCCCC1", "note": "[Compound 42]", "values": [{"measurement": "change in OT potency seen in OT dose-response curves (figure legend)", "setting": "OTR [1]", "value": "improvement in OT potency"}, {"measurement": "Relative Potency", "setting": "OTR [1]; Table 6 group", "value": 2.3}]}
{"compound": "Cn1ncc2c1c1ccccc1n2C(=O)C1CCCCCC1", "note": "[Compound 13]", "values": [{"measurement": "change in OT potency seen in OT dose-response curves (figure legend)", "setting": "OTR [1]", "value": "improvement in OT potency"}, {"measurement": "Relative Potency", "setting": "OTR [1]; Table 4 group", "value": 2.5}]}
